Peptide text beside a SMILES is read from it.
Columns and labels:
[1] = biological target: T1, CRF1R (Homo sapiens, UniProt P34998); experiment: CRF1R agonist activity (EC50, Emax), called comparative CRF binding; type: cell-based; conditions: read-out: CRF1R EC50
T1 sequence (P34998 24-415): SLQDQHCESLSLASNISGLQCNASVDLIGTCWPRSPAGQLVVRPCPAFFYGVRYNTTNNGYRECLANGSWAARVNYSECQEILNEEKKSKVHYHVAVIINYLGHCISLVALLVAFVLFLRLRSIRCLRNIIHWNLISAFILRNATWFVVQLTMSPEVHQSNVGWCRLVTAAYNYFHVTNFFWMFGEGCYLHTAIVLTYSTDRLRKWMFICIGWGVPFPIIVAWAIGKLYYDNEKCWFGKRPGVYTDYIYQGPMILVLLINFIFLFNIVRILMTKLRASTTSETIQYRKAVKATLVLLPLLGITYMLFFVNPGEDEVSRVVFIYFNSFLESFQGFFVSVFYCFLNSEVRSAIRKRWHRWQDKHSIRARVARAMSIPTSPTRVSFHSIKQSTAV
How it was run: (§1)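 Cells expressing only CRF1R or only CRF2R (or recombinant receptor) are contacted with peptide or vehicle control. Receptor activation is read as cAMP induction, measured in cell lysates or via a cAMP-responsive-element reporter gene such as luciferase.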

[2] = biological target: T2, CRF2R (Homo sapiens, UniProt Q13324); experiment: CRF2R agonist activity (EC50, Emax), called comparative CRF binding; type: cell-based; conditions: read-out: CRF2R EC50
T2 sequence (Q13324 1-411): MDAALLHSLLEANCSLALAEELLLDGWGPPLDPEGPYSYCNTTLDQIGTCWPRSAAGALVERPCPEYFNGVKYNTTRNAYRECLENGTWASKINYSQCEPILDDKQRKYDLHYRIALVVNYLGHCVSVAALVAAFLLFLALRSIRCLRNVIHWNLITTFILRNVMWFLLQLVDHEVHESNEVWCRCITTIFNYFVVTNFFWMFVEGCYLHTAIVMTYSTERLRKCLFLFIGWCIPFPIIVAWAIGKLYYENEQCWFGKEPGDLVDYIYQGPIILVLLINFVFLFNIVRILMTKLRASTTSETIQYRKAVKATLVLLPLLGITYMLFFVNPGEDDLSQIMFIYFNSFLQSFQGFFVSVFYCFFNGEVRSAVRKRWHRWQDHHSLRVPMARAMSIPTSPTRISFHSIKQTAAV
How it was run: as §1

SMILES | EC50 [1] | EC50 [2]
CC[C@H](C)[C@H](NC(=O)[C@H](C)NC(=O)[C@H](CC(N)=O)NC(=O)[C@H](CCC(N)=O)NC(=O)[C@H](CCC(=O)O)NC(=O)[C@H](C)NC(=O)[C@H](CCCNC(=N)N)NC(=O)[C@H](CCC(=O)O)NC(=O)[C@H](CCCNC(=N)N)NC(=O)[C@H](CCC(N)=O)NC(=O)[C@H](CO)NC(=O)[C@H](CCC(N)=O)NC(=O)[C@@H](NC(=O)[C@H](CCCNC(=N)N)NC(=O)[C@H](C)NC(=O)[C@H](CC(C)C)NC(=O)[C@H](CCC(=O)O)NC(=O)[C@H](CC(C)C)NC(=O)[C@H](CC(C)C)NC(=O)[C@@H](NC(=O)[C@H](CCCNC(=N)N)NC(=O)[C@H](CC(C)C)NC(=O)[C@H](CC(C)C)NC(=O)[C@@H](NC(=O)[C@H](Cc1ccccc1)NC(=O)[C@@H]1CCCN1C(=O)[C@H](CC(C)C)NC(=O)[C@H](CC(=O)O)NC(=O)[C@@H](NC(=O)[C@H](CO)NC(=O)[C@H](CC(C)C)NC(=O)[C@H](CO)NC(=O)[C@@H]1CCCN1C(=O)[C@H](CC(N)=O)NC(=O)[C@@H](N)CC(=O)O)[C@@H](C)CC)[C@@H](C)CC)[C@@H](C)O)[C@@H](C)O)C(=O)N[C@H](C(=O)N[C@@H](Cc1ccccc1)C(=O)N[C@@H](C)C(=O)N[C@@H](CO)C(=O)N[C@H](C(N)=O)C(C)C)[C@@H](C)CC [compound 181] (H-DNPSLSIDLPFILLRTLLELARTQSQRERAEQNAIIFASV-NH2; N-terminus assumed) | 154 nM | 5.22 nM
CC[C@H](C)[C@H](NC(=O)[C@H](C)NC(=O)[C@H](CC(N)=O)NC(=O)[C@H](CCC(N)=O)NC(=O)[C@H](CCC(=O)O)NC(=O)[C@H](C)NC(=O)[C@H](CCCNC(=N)N)NC(=O)[C@H](CCC(=O)O)NC(=O)[C@H](CCCNC(=N)N)NC(=O)[C@H](CCC(N)=O)NC(=O)[C@H](CO)NC(=O)[C@H](CCC(N)=O)NC(=O)[C@@H](NC(=O)[C@H](CCCNC(=N)N)NC(=O)[C@H](C)NC(=O)[C@H](CC(C)C)NC(=O)[C@H](CCC(=O)O)NC(=O)[C@H](CC(C)C)NC(=O)[C@H](CC(C)C)NC(=O)[C@@H](NC(=O)[C@H](CCCNC(=N)N)NC(=O)[C@H](CC(C)C)NC(=O)[C@H](CC(C)C)NC(=O)[C@H](Cc1ccc(O)cc1)NC(=O)[C@H](Cc1ccccc1)NC(=O)[C@@H]1CCCN1C(=O)[C@H](CC(C)C)NC(=O)[C@H](CC(=O)O)NC(=O)[C@@H](NC(=O)[C@H](CO)NC(=O)[C@H](CC(C)C)NC(=O)[C@H](CO)NC(=O)[C@@H]1CCCN1C(=O)[C@H](CC(N)=O)NC(=O)[C@@H](N)CC(=O)O)[C@@H](C)CC)[C@@H](C)O)[C@@H](C)O)C(=O)N[C@H](C(=O)N[C@@H](Cc1ccccc1)C(=O)N[C@@H](C)C(=O)N[C@@H](CO)C(=O)N[C@H](C(N)=O)C(C)C)[C@@H](C)CC [compound 183] (H-DNPSLSIDLPFYLLRTLLELARTQSQRERAEQNAIIFASV-NH2; N-terminus assumed) | 415 nM | 7.93 nM
CC[C@H](C)[C@H](N)C(=O)N[C@H](C(=O)N[C@@H](CC(C)C)C(=O)N[C@@H](CO)C(=O)N[C@@H](CC(C)C)C(=O)N[C@@H](CC(=O)O)C(=O)N[C@H](C(=O)N[C@H](C(=O)N[C@H](C(=O)NCC(=O)N[C@@H](CC(C)C)C(=O)N[C@@H](CC(C)C)C(=O)N[C@@H](CCC(N)=O)C(=O)N[C@H](C(=O)N[C@@H](CC(C)C)C(=O)N[C@@H](CC(C)C)C(=O)N[C@@H](CCC(=O)O)C(=O)N[C@@H](CCC(N)=O)C(=O)N[C@@H](C)C(=O)N[C@@H](CCCNC(=N)N)C(=O)N[C@@H](C)C(=O)N[C@@H](CCCNC(=N)N)C(=O)N[C@@H](C)C(=O)N[C@@H](C)C(=O)N[C@@H](CCCNC(=N)N)C(=O)N[C@@H](CCC(=O)O)C(=O)N[C@@H](CCC(N)=O)C(=O)N[C@@H](C)C(=O)N[C@H](C(=O)N[C@H](C(=O)N[C@@H](CC(N)=O)C(=O)N[C@@H](C)C(=O)N[C@@H](CCCNC(=N)N)C(=O)N[C@H](C(=O)N[C@@H](CC(C)C)C(=O)N[C@@H](C)C(=O)N[C@@H](CCCNC(=N)N)C(=O)N[C@H](C(N)=O)C(C)C)[C@@H](C)CC)[C@@H](C)O)[C@@H](C)O)[C@@H](C)CC)[C@@H](C)CC)C(C)C)C(C)C)C(C)C [compound 214] (H-IVLSLDVVIGLLQILLEQARARAAREQATTNARILARV-NH2; N-terminus assumed) | ≥ 100 nM | 74.3 nM
CC[C@H](C)[C@H](NC(=O)[C@H](C)NC(=O)[C@H](CC(N)=O)NC(=O)[C@H](CCC(N)=O)NC(=O)[C@H](CCC(=O)O)NC(=O)[C@H](C)NC(=O)[C@H](CCCNC(=N)N)NC(=O)[C@H](CCC(=O)O)NC(=O)[C@H](CCCNC(=N)N)NC(=O)[C@H](CCC(N)=O)NC(=O)[C@H](CO)NC(=O)[C@H](CCC(N)=O)NC(=O)[C@@H](NC(=O)[C@H](CCCNC(=N)N)NC(=O)[C@H](C)NC(=O)[C@H](CC(C)C)NC(=O)[C@H](CCC(=O)O)NC(=O)[C@H](CC(C)C)NC(=O)[C@H](CC(C)C)NC(=O)[C@@H](NC(=O)[C@H](CCCNC(=N)N)NC(=O)[C@H](CC(C)C)NC(=O)[C@H](CC(C)C)NC(=O)[C@H](Cc1ccc(O)cc1)NC(=O)[C@H](Cc1ccc(O)cc1)NC(=O)[C@@H]1CCCN1C(=O)[C@H](CC(C)C)NC(=O)[C@H](CC(=O)O)NC(=O)[C@@H](NC(=O)[C@H](CO)NC(=O)[C@H](CC(C)C)NC(=O)[C@H](CO)NC(=O)[C@@H]1CCCN1C(=O)[C@H](CC(N)=O)NC(=O)[C@@H](N)CC(=O)O)[C@@H](C)CC)[C@@H](C)O)[C@@H](C)O)C(=O)N[C@H](C(=O)N[C@@H](Cc1ccccc1)C(=O)N[C@@H](C)C(=O)N[C@@H](CO)C(=O)N[C@H](C(N)=O)C(C)C)[C@@H](C)CC [compound 263] (H-DNPSLSIDLPYYLLRTLLELARTQSQRERAEQNAIIFASV-NH2; N-terminus assumed) | 802 nM | 36.2 nM
CC[C@H](C)[C@H](N)C(=O)N[C@H](C(=O)N[C@@H](CC(C)C)C(=O)N[C@@H](CO)C(=O)N[C@@H](CC(C)C)C(=O)N[C@@H](CC(=O)O)C(=O)N[C@H](C(=O)N1CCC[C@H]1C(=O)N[C@H](C(=O)NCC(=O)N[C@@H](CC(C)C)C(=O)N[C@@H](CC(C)C)C(=O)N[C@@H](CCC(N)=O)C(=O)N[C@@H](CCCCN)C(=O)N[C@H](C(=O)N[C@H](C(=O)N[C@@H](CCC(=O)O)C(=O)N[C@H](C(=O)N[C@@H](CCC(=O)O)C(=O)N[C@@H](CCCCN)C(=O)N[C@@H](CCC(N)=O)C(=O)N[C@@H](CCC(=O)O)C(=O)N[C@@H](CCCCN)C(=O)N[C@@H](CCC(=O)O)C(=O)N[C@@H](CCCCN)C(=O)N[C@@H](CCC(N)=O)C(=O)N[C@@H](CCC(N)=O)C(=O)N[C@@H](C)C(=O)N[C@H](C(=O)N[C@H](C(=O)N[C@@H](CC(N)=O)C(=O)N[C@@H](C)C(=O)N[C@@H](CCCNC(=N)N)C(=O)N[C@H](C(=O)N[C@@H](CC(C)C)C(=O)N[C@@H](C)C(=O)N[C@@H](CCCNC(=N)N)C(=O)N[C@H](C(N)=O)C(C)C)[C@@H](C)CC)[C@@H](C)O)[C@@H](C)O)[C@@H](C)CC)[C@@H](C)CC)C(C)C)[C@@H](C)CC)C(C)C)C(C)C [compound 300] (H-IVLSLDVPIGLLQKVIEIEKQEKEKQQATTNARILARV-NH2; N-terminus assumed) | ≥ 1000 nM | 17.1 nM
CC[C@H](C)[C@H](NC(=O)[C@H](CCC(=O)O)NC(=O)[C@H](C)NC(=O)[C@H](CC(N)=O)NC(=O)[C@H](CCC(N)=O)NC(=O)[C@H](CCC(=O)O)NC(=O)[C@H](C)NC(=O)[C@H](CCCNC(=N)N)NC(=O)[C@H](CCC(=O)O)NC(=O)[C@H](CCCNC(=N)N)NC(=O)[C@H](CCC(N)=O)NC(=O)[C@H](CO)NC(=O)[C@H](CCC(N)=O)NC(=O)[C@@H](NC(=O)[C@H](CCCCN)NC(=O)[C@H](CCC(=O)O)NC(=O)[C@H](CC(C)C)NC(=O)[C@H](CCC(=O)O)NC(=O)[C@H](CC(C)C)NC(=O)[C@H](CC(C)C)NC(=O)[C@@H](NC(=O)[C@H](CCCNC(=N)N)NC(=O)[C@H](CC(C)C)NC(=O)[C@H](CC(C)C)NC(=O)[C@H](CC(C)C)NC(=O)[C@H](CC(C)C)NC(=O)[C@@H]1CCCN1C(=O)[C@H](CC(C)C)NC(=O)[C@H](CC(=O)O)NC(=O)[C@@H](NC(=O)[C@H](CO)NC(=O)[C@H](CC(C)C)NC(=O)[C@H](CO)NC(=O)[C@@H]1CCCN1C(=O)[C@H](CC(N)=O)NC(=O)[C@@H](N)CC(=O)O)[C@@H](C)CC)[C@@H](C)O)[C@@H](C)O)C(=O)N[C@@H](Cc1ccccc1)C(=O)N[C@@H](C)C(=O)N[C@@H](CCC(=O)O)C(=O)N[C@H](C(N)=O)C(C)C [compound 323] (H-DNPSLSIDLPLLLLRTLLELEKTQSQRERAEQNAEIFAEV-NH2; N-terminus assumed) | ≥ 1000 nM | 19.6 nM
